Test results from patent US11078168B2, “Substituted N-hydroxyamidinoheterocycles as modulators of indoleamine 2,3-dioxygenase” (PHENEX DISCOVERY VERWALTUNGS-GMBH, priority 2016, dated 2021).
pIC50: −log10 of the molar value.

Target: T1, Indoleamine 2,3-dioxygenase (Homo sapiens, UniProt P14902)
T1 construct: endogenous in cells; host or cells: SKOV-3 (ATCC HTB-77), stimulated with interferon gamma
Assay: SKOV-3 cellular Indoleamine 2,3-dioxygenase assay
Conditions: SKOV-3 cells, 50 ng/ml Interferon gamma, 100 μM L-Tryptophan, 24 hours, N-Formylkynurenin fluorescence detection; read-out: cell based activity
Protocol: SKOV-3 cellular Indoleamine 2,3-dioxygenase assay
SKOV-3 cells were obtained from the American Type Culture Collection (ATCC® HTB-77™) and maintained in McCoy's medium (Pan Biotech) supplemented with 10% fetal bovine serum and 1% Penicilin/Streptomycin. Cells were kept at 37° C. in a humidified incubator with 5% CO2. For assay preparation, cells were seeded at a density of 2*10^5/ml into black clear bottom 96 well plates in 100 μl medium/well supplemented with 50 ng/ml Interferon gamma (eBioscience, Thermo Fisher Scientific). After cells fully adhered to the plate, dilution series of compounds were added in medium containing additional L-Tryptophan to a final L-Tryptophan concentration of 100 μM. The cells were incubated for 24 hours. Detection of produced N-Formylkynurenin was performed by addition of 3-Methylpiperidine to a final concentration of 200 mM. The plates were sealed and heated to 65° C. for 20 minutes in a water bath. After cooling the fluorescence of each well was recorded with a Victor™X4 (PerkinElmer) plate reader at an emission wavelength of 535 nm and excitation at 405 nm (Tomek et al.; Anal Bioanal Chem (2013) 405:2515-2524., Tomek et al.; Biochim Biophys Acta. 2015 September; 1850(9):1772-80).

T1 sequence (P14902 whole entry): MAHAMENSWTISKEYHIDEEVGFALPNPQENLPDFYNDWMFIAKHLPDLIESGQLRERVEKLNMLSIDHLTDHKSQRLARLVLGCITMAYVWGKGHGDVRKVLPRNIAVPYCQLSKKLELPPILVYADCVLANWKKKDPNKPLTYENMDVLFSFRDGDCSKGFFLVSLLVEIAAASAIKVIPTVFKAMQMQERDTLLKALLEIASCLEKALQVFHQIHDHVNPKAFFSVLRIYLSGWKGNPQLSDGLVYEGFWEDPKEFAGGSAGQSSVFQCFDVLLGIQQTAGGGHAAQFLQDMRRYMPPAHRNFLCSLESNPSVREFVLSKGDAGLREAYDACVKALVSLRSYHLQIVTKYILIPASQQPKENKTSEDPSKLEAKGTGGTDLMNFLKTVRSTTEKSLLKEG

pIC50	SMILES
> 7.00	O=S(=O)(NCCOc1nonc1C(=NO)Nc1ccc(F)c(Cl)c1)C(F)F [1/3]
> 7.00	NC(=O)c1ccc(C(=O)NCCSc2nonc2C(=NO)Nc2ccc(F)c(Cl)c2)cc1 [117/9]
6.00 to 7.00	Nc1nnc(NCCSc2nonc2C(=NO)Nc2ccc(F)c(C(F)F)c2)[nH]1 [Example 110, 4-((2-((5-Amino-4H-1,2,4-triazol-3-yl)amino)ethyl)thio)—N-(3-(difluoromethyl)-4-fluorophenyl)-N′-hydroxy-1,2,5-oxadiazole-3-carboximidamide]
> 7.00	N#Cc1cc(N/C(=N\O)c2nonc2SCCNC(=O)CS(N)(=O)=O)ccc1F [107/3]
> 7.00	NS(=O)(=O)CC(=O)NCCSc1nonc1/C(=N/O)Nc1ccc(F)c(C(F)(F)F)c1 [107/31]
6.00 to 7.00	CC(CN)Oc1nonc1C(=NO)Nc1ccc(F)c(Cl)c1 (stereo not drawn) [Example 17, 4-((1-Aminopropan-2-yl)oxy)-N-(3-chloro-4-fluorophenyl)-N′-hydroxy-1,2,5-oxadiazole-3-carboximidamide]
> 7.00	Nc1c(NCCOc2nonc2C(=NO)Nc2ccc(F)c(C(F)F)c2)c(=O)c1=O [2/3]
> 7.00	NS(=O)(=O)NCCSc1nonc1C(=NO)Nc1ccc(F)c(Cl)c1 [101/1, N-(3-Chloro-4-fluorophenyl)-N′-hydroxy-4-((2-(sulfamoylamino)ethyl)thio)-1,2,5-oxadiazole-3-carboximidamide]
> 7.00	CC(=O)N1CC(O)(C(=O)NCCSc2nonc2C(=NO)Nc2ccc(F)c(C(F)F)c2)C1 [128/3]
> 7.00	NS(=O)(=O)CC(=O)NCCSc1nonc1/C(=N/O)Nc1ccc(F)c(C(F)F)c1 [117/12]
> 7.00	NC(=O)CCS(=O)(=O)NCCSc1nonc1C(=NO)Nc1ccc(F)c(C(F)F)c1 [119/5]
> 7.00	Nc1c(NCCOc2nonc2C(=NO)Nc2ccc(F)c(Cl)c2)c(=O)c1=O [Example 2, 4-(2-((2-Amino-3,4-dioxocyclobut-1-en-1-yl)amino)ethoxy)-N-(3-chloro-4-fluorophenyl)-N′-hydroxy-1,2,5-oxadiazole-3-carboximidamide]
> 7.00	NC(=O)CNS(=O)(=O)NCCSc1nonc1C(=NO)Nc1ccc(F)c(C(F)F)c1 [119/6]
> 7.00	O=C(NCCSc1nonc1C(=NO)Nc1ccc(F)c(C(F)F)c1)c1ccc(C2(O)COC2)cc1 [107/29]
> 7.00	NS(=O)(=O)CC(=O)NCCSc1nonc1C(=NO)Nc1ccc(F)c(Br)c1F [117/23]
> 7.00	C[C@H](CSc1nonc1/C(=N/O)Nc1ccc(F)c(Br)c1)NC(=O)CS(N)(=O)=O (single isomer, unassigned) [114/4]
> 7.00	CS(=O)(=O)NCCOc1nonc1/C(=N/O)Nc1ccc(F)c(Br)c1 [Example 1, N-(3-Bromo-4-fluorophenyl)-N′-hydroxy-4-(2-(methylsulfonamido)ethoxy)-1,2,5-oxadiazole-3-carboximidamide]
6.00 to 7.00	Cc1nnc(NCCOc2nonc2C(=NO)Nc2ccc(F)c(Cl)c2)o1 [Example 14, N-(3-Chloro-4-fluorophenyl)-N′-hydroxy-4-(2-((5-methyl-1,3,4-oxadiazol-2-yl)amino)ethoxy)-1,2,5-oxadiazole-3-carboximidamide]
< 6.00	O=S(=O)(Cc1ccccc1)c1nonc1C(=NO)Nc1ccc(F)c(Cl)c1 [Example 104, 4-(Benzylsulfonyl)-N-(3-chloro-4-fluorophenyl)-N′-hydroxy-1,2,5-oxadiazole-3-carboximidamide]
< 6.00	CS(=O)(=O)CCOc1nonc1C(=NO)Nc1ccc(F)c(Cl)c1 [Example 20, N-(3-Chloro-4-fluorophenyl)-N′-hydroxy-4-(2-(methylsulfonyl)ethoxy)-1,2,5-oxadiazole-3-carboximidamide]

pIC50	SMILES
6.00 to 7.00	[O-][S+](c1nonc1C(=NO)Nc1ccc(F)c(Br)c1)C1CC1 (stereo not drawn) [109/2]
> 7.00	NS(=O)(=O)CC(=O)NCCSc1nonc1/C(=N/O)Nc1cccc(Cl)c1 [107/5]
> 7.00	NS(=O)(=O)NCCSc1nonc1C(=NO)Nc1cccc(C(F)F)c1 [Example 112, N-(3-(Difluoromethyl)phenyl)-N′-hydroxy-4-((2-(sulfamoylamino)ethyl)thio)-1,2,5-oxadiazole-3-carboximidamide]
6.00 to 7.00	O=C(NCCOc1nonc1C(=NO)Nc1ccc(F)c(Cl)c1)c1cnccn1 [9/4]
6.00 to 7.00	O=C(NCCSc1nonc1C(=NO)Nc1ccc(F)c(Cl)c1)c1nnn[nH]1 [Example 117, N-(2-((4-(N-(3-Chloro-4-fluorophenyl)-N′-hydroxycarbamimidoyl)-1,2,5-oxadiazol-3-yl)thio)ethyl)-1H-tetrazole-5-carboxamide]
> 7.00	CC(C)(O)C(=O)NCCSc1nonc1C(=NO)Nc1ccc(F)c(C(F)F)c1 [107/6]
> 7.00	CS(=N)(=O)c1ccc(C(=O)NCCSc2nonc2C(=NO)Nc2ccc(F)c(C(F)F)c2)cc1 (stereo not drawn) [Example 122, N-(2-((4-(N-(3-(Difluoromethyl)-4-fluorophenyl)-N′-hydroxycarbamimidoyl)-1,2,5-oxadiazol-3-yl)thio)ethyl)-4-(S-methylsulfonimidoyl)benzamide]
> 7.00	NC(=O)CC(=O)NCCSc1nonc1C(=NO)Nc1cccc(C(F)(F)F)c1 [119/1]
> 7.00	C[C@@H](CSc1nonc1C(=NO)Nc1ccc(F)c(C(F)F)c1)NC(=O)CS(N)(=O)=O (single isomer, unassigned) [114/1]
< 6.00	O=C(O)C1CN(CCSc2nonc2C(=NO)Nc2ccc(F)c(C(F)F)c2)C1 [108/1]
> 7.00	NS(=O)(=O)CCC(=O)NCCSc1nonc1C(=NO)Nc1cccc(Cl)c1 [107/15]
> 7.00	Nc1c(NCCSc2nonc2C(=NO)Nc2ccc(F)c(Cl)c2)c(=O)c1=O [Example 102, 4-((2-((2-Amino-3,4-dioxocyclobut-1-en-1-yl)amino)ethyl)thio)—N-(3-chloro-4-fluorophenyl)-N′-hydroxy-1,2,5-oxadiazole-3-carboximidamide]
> 7.00	C[C@@H](CSc1nonc1C(=NO)Nc1ccc(F)c(C(F)F)c1)NC(=O)CCS(N)(=O)=O (single isomer, unassigned) [114/3]
6.00 to 7.00	O=C(NCCOc1nonc1C(=NO)Nc1ccc(F)c(Cl)c1)N1C[C@@H](O)[C@@H](O)C1 [Example 18, (3S,4R)—N-(2-((4-(N-(3-Chloro-4-fluorophenyl)-N′-hydroxycarbamimidoyl)-1,2,5-oxadiazol-3-yl)oxy)ethyl)-3,4-dihydroxypyrrolidine-1-carboxamide]
> 7.00	Cn1nc(C(=O)NCCSc2nonc2C(=NO)Nc2ccc(F)c(C(F)(F)F)c2)[nH]c1=O [117/16]
> 7.00	NC(=O)CS(=O)(=O)NCCOc1nonc1C(=NO)Nc1ccc(F)c(C(F)F)c1 [4/2]
> 7.00	NS(=O)(=O)NCCOc1nonc1/C(=N/O)Nc1ccc(F)c(Br)c1 [Example 6, N-(3-Bromo-4-fluorophenyl)-N′-hydroxy-4-(2-(sulfamoylamino)ethoxy)-1,2,5-oxadiazole-3-carboximidamide]
6.00 to 7.00	C[S+]([O-])NCCOc1nonc1C(=NO)Nc1ccc(F)c(Cl)c1 (stereo not drawn) [1/4]
6.00 to 7.00	CS(=O)(=O)Nc1ccc(C(=O)NCCSc2nonc2C(=NO)Nc2ccc(F)c(Cl)c2)cn1 [Example 121, N-(2-((4-(N-(3-Chloro-4-fluorophenyl)-N′-hydroxycarbamimidoyl)-1,2,5-oxadiazol-3-yl)thio)ethyl)-6-(methylsulfonamido)nicotinamide]
